Laboratory results reported in publication PMC11087268, “A folate inhibitor exploits metabolic differences in Pseudomonas aeruginosa for narrow-spectrum targeting” (Nature Microbiology, 2024).

How the values were obtained:
[1] = system: E. coli MG1655; assay: Growth of E. coli MG1655 in TMI-supplemented media with fluorofolin; assay type: cell-based, Escherichia coli
[2] = system: Pseudomonas aeruginosa PA01; assay: MIC against P. aeruginosa PA01 in LB broth; assay type: cell-based; conditions: 16 h, 37 °C, OD600
Protocol: Overnight cultures were diluted 1:150 in LB broth and added to a 96-well plate. Antibiotics were serially diluted 1:2 and added to columns of the 96-well plate and grown at 37 °C with continuous shaking. Cell growth was measured using optical density at 600 nm (OD600). MIC assays were performed in either BioTek Synergy HT or Tecan InfiniteM200 Pro microplate readers.

Nc1nc(N)c2c(ccc3c2ccn3Cc2ccnc(F)c2)n1 [fluorofolin]
OD600 of E. coli MG1655 ([1]; Fluorofolin + TMI, Time 520 min): 0.2055 | OD600 of E. coli MG1655 ([1]; Fluorofolin + TMI, Time 530 min): 0.21 | OD600 of E. coli MG1655 ([1]; Fluorofolin + TMI, Time 540 min): 0.2145 | OD600 of E. coli MG1655 ([1]; Fluorofolin + TMI, Time 970 min): 0.33 | OD600 of E. coli MG1655 ([1]; Fluorofolin, Time 10 min): -0.0085 | OD600 of E. coli MG1655 ([1]; Fluorofolin, Time 70 min): -0.005 | OD600 of E. coli MG1655 ([1]; Fluorofolin, Time 80 min): -0.003 | OD600 of E. coli MG1655 ([1]; Fluorofolin, Time 90 min): -0.0015 | OD600 of E. coli MG1655 ([1]; Fluorofolin, Time 100 min): 0.001 | OD600 of E. coli MG1655 ([1]; Fluorofolin, Time 110 min): 0.0035 | OD600 of E. coli MG1655 ([1]; Fluorofolin, Time 120 min): 0.006 | OD600 of E. coli MG1655 ([1]; Fluorofolin, Time 130 min): 0.009 | OD600 of E. coli MG1655 ([1]; Fluorofolin, Time 140 min): 0.0125 | OD600 of E. coli MG1655 ([1]; Fluorofolin, Time 150 min): 0.0155 | OD600 of E. coli MG1655 ([1]; Fluorofolin, Time 160 min): 0.018 | OD600 of E. coli MG1655 ([1]; Fluorofolin, Time 170 min): 0.02 | OD600 of E. coli MG1655 ([1]; Fluorofolin, Time 180 min): 0.023 | OD600 of E. coli MG1655 ([1]; Fluorofolin, Time 190 min): 0.0255 | OD600 of E. coli MG1655 ([1]; Fluorofolin, Time 200 min): 0.028 | OD600 of E. coli MG1655 ([1]; Fluorofolin, Time 210 min): 0.0305 | OD600 of E. coli MG1655 ([1]; Fluorofolin, Time 220 min): 0.033 | OD600 of E. coli MG1655 ([1]; Fluorofolin, Time 230 min): 0.035 | OD600 of E. coli MG1655 ([1]; Fluorofolin, Time 240 min): 0.0365 | OD600 of E. coli MG1655 ([1]; Fluorofolin, Time 250 min): 0.0395 | OD600 of E. coli MG1655 ([1]; Fluorofolin, Time 260 min): 0.0405 | OD600 of E. coli MG1655 ([1]; Fluorofolin, Time 270 min): 0.042 | OD600 of E. coli MG1655 ([1]; Fluorofolin, Time 280 min): 0.044 | OD600 of E. coli MG1655 ([1]; Fluorofolin, Time 290 min): 0.0455 | OD600 of E. coli MG1655 ([1]; Fluorofolin, Time 300 min): 0.0475 | OD600 of E. coli MG1655 ([1]; Fluorofolin, Time 310 min): 0.0485 | OD600 of E. coli MG1655 ([1]; Fluorofolin, Time 320 min): 0.0505 | OD600 of E. coli MG1655 ([1]; Fluorofolin, Time 330 min): 0.0515 | OD600 of E. coli MG1655 ([1]; Fluorofolin, Time 340 min): 0.053 | OD600 of E. coli MG1655 ([1]; Fluorofolin, Time 350 min): 0.0545 | OD600 of E. coli MG1655 ([1]; Fluorofolin, Time 360 min): 0.0555 | OD600 of E. coli MG1655 ([1]; Fluorofolin, Time 370 min): 0.0565 | OD600 of E. coli MG1655 ([1]; Fluorofolin, Time 380 min): 0.0575 | OD600 of E. coli MG1655 ([1]; Fluorofolin, Time 390 min): 0.058 | OD600 of E. coli MG1655 ([1]; Fluorofolin, Time 400 min): 0.059 | OD600 of E. coli MG1655 ([1]; Fluorofolin, Time 410 min): 0.0595 | OD600 of E. coli MG1655 ([1]; Fluorofolin, Time 420 min): 0.0605 | OD600 of E. coli MG1655 ([1]; Fluorofolin, Time 430 min): 0.061 | OD600 of E. coli MG1655 ([1]; Fluorofolin, Time 440 min): 0.0615 | OD600 of E. coli MG1655 ([1]; Fluorofolin, Time 450 min): 0.062 | OD600 of E. coli MG1655 ([1]; Fluorofolin, Time 460 min): 0.062 | OD600 of E. coli MG1655 ([1]; Fluorofolin, Time 470 min): 0.063 | OD600 of E. coli MG1655 ([1]; Fluorofolin, Time 480 min): 0.0635 | OD600 of E. coli MG1655 ([1]; Fluorofolin, Time 490 min): 0.0635 | OD600 of E. coli MG1655 ([1]; Fluorofolin, Time 500 min): 0.064 | OD600 of E. coli MG1655 ([1]; Fluorofolin, Time 510 min): 0.064 | OD600 of E. coli MG1655 ([1]; Fluorofolin, Time 520 min): 0.064 | OD600 of E. coli MG1655 ([1]; Fluorofolin, Time 530 min): 0.064 | OD600 of E. coli MG1655 ([1]; Fluorofolin, Time 540 min): 0.064 | OD600 of E. coli MG1655 ([1]; Fluorofolin, Time 970 min): 0.053 | MIC [2]: 6.25 µg/mL
